In patent EP3345917A1, “ANTIPROTOZOAL COMPOUNDS” (Bacoba AG, priority 2017, dated 2018):
Non-standard residues stand in square brackets, D forms with d. Residues, ends and D or L forms follow the SMILES beside them. *: point of attachment. NH((S)CH(Me)CH2NMe2) = C[C@@H](CN(C)C)N*; NH(1-CH2NMe2-cBu) = CN(C)CC1(N*)CCC1; Gly(octyl) = CCCCCCCC[C@H](N)C(=O)O; Oxazole4CO(2-Me) = Cc1nc(C(=O)*)co1; X16 = COc1ccc2cc(C(=O)*)c(=O)oc2c1; Hexanoyl = CCCCCC(=O)*; X18 = CN1CCN(CCN*)CC1; Aib = CC(C)(N)C(=O)O; X14 = O=C(c1cocn1)*; βAla = NCCC(=O)O; NHcPr = C1CC1N*

How the values were obtained:
[1] = test system: Plasmodium falciparum; assay: 3H-hypoxanthine incorporation assay against Plasmodium falciparum; format: cell-based; details: In vitro inhibition, read-out: P.falc NF5
Method: (§1) Tests were done in triplicate.
IC50 values were calculated by linear interpolation.

[2] = test system: Axenically grown Leishmania donovani amastigotes (strain MHOM/ET/67/L82); assay: Axenic Leishmania donovani amastigote resazurin assay; format: cell-based; details: In vitro inhibition, read-out: L.don. ax
Method: as §1
Axenically grown Leishmania donovani amastigotes (strain MHOM/ET/67/L82) were grown and tests were done as previously described using the resazurin assay (Räz B et al. Acta Tropica 1997, 68:139-147). The plates were developed for 2-4 hours and read on a Spectramax Gemini XS micro plate fluorometer (Molecular Devices Cooperation) using an excitation wavelength of 536 nm and emission wavelength of 588 nm. Fluorescence development was measured and expressed as percentage of the negative control. […] Data were transferred to the graphic programme Softmax Pro (Molecular Devices), with which IC50 values were calculated.

[3] = test system: Trypanosoma brucei rhodesiense (STIB 900 strain); assay: Alamar Blue assay against Trypanosoma brucei rhodesiense grown in axenic medium; format: cell-based; details: In vitro inhibition, read-out: T.b.rhod.
Method: as §1
Trypanosoma brucei rhodesiense (STIB 900) were grown in axenic medium as described by Baltz et al. (1985) The samples were tested using the Alamar Blue assay protocol (Baltz T et al. EMBO J 1985; 4:1273-1277) to determine the 50% inhibitory concentration (IC50). […] Melarsoprol (Arsobal®, Sanofi-Aventis, Switzerland) was used as a reference drug (IC50= 0.03 ± 0.01 µM). Its purity was over 95 %, as was certified by the supplier. The IC50 values were calculated by using Softmax Pro software (Molecular Devices Cooperation, Sunnyvale, CA).

[4] = test system: Trypanosoma cruzi trypomastigote forms (Tulahuen strain); assay: Intracellular Trypanosoma cruzi assay in L6-cells, beta-galactosidase/CPRG readout; format: cell-based; details: In vitro inhibition, read-out: T.cruzi.
Method: as §1
Trypanosoma cruzi trypomastigote forms (Tulahuen strain C2C4 containing β-galactosidase (Lac Z) gene) were cultured as described by Buckner et al. (Buckner FS et al. Antimicrob Agents Ch1996; 40: 2592-2597) in rat myoblast cells (L6-cells). […] After incubation, the substrate chlorophenyl red β-D-galactopyranoside agent CPRG/Nonident was added to all wells and a color change was developed within 2 to 6 h. The plates were read photometrically at 540 nm (Molecular Devices). Data were evaluated and IC50 values calculated using Softmax Pro software (Molecular Devices).

[5] = Cytotoxicity assay on L6-cells (Alamar Blue); details: rat, Cytotox L6, Cytotoxicity against rat myoblast cells (L6)

| Structure (SMILES) | IC50 [1] [nM] | IC50 [2] [nM] | IC50 [3] [nM] | IC50 [4] [nM] | IC50 at 70 h [5] [nM] |
| --- | --- | --- | --- | --- | --- |
| CCCCCCCC[C@H](NC(=O)[C@H](C)NC(=O)CCCCC)C(=O)N[C@H](C(=O)NC(C)(C)C(=O)N[C@@H](CC(C)C)C(=O)N[C@@H](CC(C)C)C(=O)NC(C)(C)C(=O)NC(C)(C)C(=O)NCCC(=O)N[C@@H](C)CN(C)C)[C@@H](C)O [Compound 5605, (2S)-N-[(1S,2R)-1-[(1-{[(1S)-1-{[(1S)-1-{[1-({1-[(2-{[(2S)-1-(dimethylamino)propan-2-yl]carbamoyl}ethyl)carbamoyl]-1-methylethyl}carbamoyl)-1-methylethyl]carbamoyl}-3-methylbutyl]carbamoyl}-3-methylbutyl]carbamoyl}-1-methylethyl)carbamoyl]-2-hydroxypropyl]-2-[(2S)-2-hexanamidopropanamido]decanamide] (Hexanoyl-A[Gly(octyl)]T[Aib]LL[Aib][Aib][βAla]-{NH((S)CH(Me)CH2NMe2)}) | 39.3 | 78.6 | 22.8 | 1840 | 2480 |
| CCCCCCCC[C@H](NC(=O)c1cocn1)C(=O)N[C@H](C(=O)NC(C)(C)C(=O)N[C@@H](CC(C)C)C(=O)N[C@@H](CC(C)C)C(=O)NC(C)(C)C(=O)NC(C)(C)C(=O)NCCC(=O)N[C@@H](C)CN(C)C)[C@@H](C)O [Compound 5639, (2S)-N-[(1S,2R)-1-[(1-{[(1S)-1-{[(1S)-1-{[1-({1-[(2-{[(2S)-1-(dimethylamino)propan-2-yl]carbamoyl}ethyl)carbamoyl]-1-methylethyl}carbamoyl)-1-methylethyl]carbamoyl}-3-methylbutyl]carbamoyl}-3-methylbutyl]carbamoyl}-1-methylethyl)carbamoyl]-2-hydroxypropyl]-2-[(1,3-oxazol-4-yl)formamido]decanamide] (X14-[Gly(octyl)]T[Aib]LL[Aib][Aib][βAla]-{NH((S)CH(Me)CH2NMe2)}) | 244 | 540 | 22.5 | 5360 | 1640 |
| CCCCCCCC[C@H](NC(=O)c1coc(C)n1)C(=O)N[C@H](C(=O)NC(C)(C)C(=O)N[C@@H](CC(C)C)C(=O)N[C@@H](CC(C)C)C(=O)NC(C)(C)C(=O)NC(C)(C)C(=O)NCCC(=O)N[C@@H](C)CN(C)C)[C@@H](C)O [Compound 5640, (2S)-N-[(1S,2R)-1-[(1-{[(1S)-1-{[(1S)-1-{[1-({1-[(2-{[(2S)-1-(dimethylamino)propan-2-yl]carbamoyl}ethyl)carbamoyl]-1-methylethyl}carbamoyl)-1-methylethyl]carbamoyl}-3-methylbutyl]carbamoyl}-3-methylbutyl]carbamoyl}-1-methylethyl)carbamoyl]-2-hydroxypropyl]-2-[(2-methyl-1,3-oxazol-4-yl)formamido]decanamide] ({Oxazole4CO(2-Me)}-[Gly(octyl)]T[Aib]LL[Aib][Aib][βAla]-{NH((S)CH(Me)CH2NMe2)}) | 85.6 | 193 | 5.3 | 3740 | 4440 |
| CCCCCCCC[C@H](NC(=O)[C@@H]1CCCN1C(=O)CCCCC)C(=O)N[C@@H](CC(C)C)C(=O)NC(C)(C)C(=O)N[C@@H](CC(C)C)C(=O)N[C@@H](CC(C)C)C(=O)NC(C)(C)C(=O)NC(C)(C)C(=O)NCCC(=O)NC1CC1 [Compound 5645, (2S)-N-[(1S)-1-[(1-{[(1S)-1-{[(1S)-1-({1-[(1-{[2-(cyclopropylcarbamoyl)ethyl]carbamoyl}-1-methylethyl)carbamoyl]-1-methylethyl}carbamoyl)-3-methylbutyl]carbamoyl}-3-methylbutyl]carbamoyl}-1-methylethyl)carbamoyl]-3-methylbutyl]-2-{[(2S)-1-hexanoylpyrrolidin-2-yl]formamido}decanamide] (Hexanoyl-P[Gly(octyl)]L[Aib]LL[Aib][Aib][βAla]-NHcPr) | 13.8 | 168 | 537 | 4240 | 1230 |
| CCCCCC(=O)N1CCC[C@H]1C(=O)N[C@@H](CCCCNC(C)=O)C(=O)N[C@@H](CC(C)C)C(=O)NC(C)(C)C(=O)N[C@@H](CC(C)C)C(=O)N[C@@H](CC(C)C)C(=O)NC(C)(C)C(=O)NC(C)(C)C(=O)NCCC(=O)N[C@@H](C)CN(C)C [Compound 5766, (2S)-N-[(1S)-1-[(1-{[(1S)-1-{[(1S)-1-{[1-({1-[(2-{[(2S)-1-(dimethylamino)propan-2-yl]carbamoyl}ethyl)carbamoyl]-1-methylethyl}carbamoyl)-1-methylethyl]carbamoyl}-3-methylbutyl]carbamoyl}-3-methylbutyl]carbamoyl}-1-methylethyl)carbamoyl]-3-methylbutyl]-6-acetamido-2-{[(2S)-1-hexanoylpyrrolidin-2-yl]formamido}hexanamide] (Hexanoyl-PK(Ac)L[Aib]LL[Aib][Aib][βAla]-{NH((S)CH(Me)CH2NMe2)}) | 135 | 752 | 3 | 3780 | 4870 |
| CCCCCC(=O)N1CCC[C@H]1C(=O)N[C@@H](CCCCNC(=O)c1cc2ccc(OC)cc2oc1=O)C(=O)N[C@@H](CC(C)C)C(=O)NC(C)(C)C(=O)N[C@@H](CC(C)C)C(=O)N[C@@H](CC(C)C)C(=O)NC(C)(C)C(=O)NC(C)(C)C(=O)NCCC(=O)N[C@@H](C)CN(C)C [Compound 5767, (2S)-N-[(1S)-1-[(1-{[(1S)-1-{[(1S)-1-{[1-({1-[(2-{[(2S)-1-(dimethylamino)propan-2-yl]carbamoyl}ethyl)carbamoyl]-1-methylethyl}carbamoyl)-1-methylethyl]carbamoyl}-3-methylbutyl]carbamoyl}-3-methylbutyl]carbamoyl}-1-methylethyl)carbamoyl]-3-methylbutyl]-2-{[(2S)-1-hexanoylpyrrolidin-2-yl]formamido}-6-[(7-methoxy-2-oxo-2H-chromen-3-yl)formamido]hexanamide] (Hexanoyl-PK(X16)L[Aib]LL[Aib][Aib][βAla]-{NH((S)CH(Me)CH2NMe2)}) | 21.3 | 17.8 | 3.5 | 114 | 508 |
| CCCCCCCC[C@H](NC(=O)[C@@H]1CCCN1C(=O)CCCCC)C(=O)N[C@@H](CC(C)C)C(=O)NC(C)(C)C(=O)N[C@@H](CC(C)C)C(=O)N[C@@H](CC(C)C)C(=O)NC(C)(C)C(=O)NC(C)(C)C(=O)NCCC(=O)NC1(CN(C)C)CCC1 [Compound 5882, (2S)-N-[(1S)-1-[(1-{[(1S)-1-{[(1S)-1-({1-[(1-{[2-({1-[(dimethylamino)methyl]cyclobutyl}carbamoyl)ethyl]carbamoyl}-1-methylethyl)carbamoyl]-1-methylethyl}carbamoyl)-3-methylbutyl]carbamoyl}-3-methylbutyl]carbamoyl}-1-methylethyl)carbamoyl]-3-methylbutyl]-2-{[(2S)-1-hexanoylpyrrolidin-2-yl]formamido}decanamide] (Hexanoyl-P[Gly(octyl)]L[Aib]LL[Aib][Aib][βAla]-{NH(1-CH2NMe2-cBu)}) | 0.9 | 46800 | 20500 | 42600 | 44.1 |
| CCCCCCCC[C@H](NC(=O)[C@@H]1CCCN1C(=O)CCCCC)C(=O)N[C@@H](CC(C)C)C(=O)NC(C)(C)C(=O)N[C@@H](CC(C)C)C(=O)N[C@@H](CC(C)C)C(=O)NC(C)(C)C(=O)NC(C)(C)C(=O)NCCC(=O)NCCN1CCN(C)CC1 [Compound 5884, (2S)-2-{[(2S)-1-hexanoylpyrrolidin-2-yl]formamido}-N-[(1S)-3-methyl-1-[(1-methyl-1-{[(1S)-3-methyl-1-{[(1S)-3-methyl-1-{[1-methyl-1-({1-methyl-1-[(2-{[2-(4-methylpiperazin-1-yl)ethyl]carbamoyl}ethyl)carbamoyl]ethyl}carbamoyl)ethyl]carbamoyl}butyl]carbamoyl}butyl]carbamoyl}ethyl)carbamoyl]butyl]decanamide] (Hexanoyl-P[Gly(octyl)]L[Aib]LL[Aib][Aib][βAla]-X18) | 15000 | 19400 | 0.6 | 42500 | 128 |
